Laboratory results reported in patent US7687502B2, “Substituted quinazoline or pyridopyrimidine derivative” (Banyu Pharmaceutical Co., Ltd., priority 2004, dated 2010).

Molecular target: T1, Recombinant human liver GK (Homo sapiens, UniProt P35557)
T1 construct: made in house; host or cells: E. coli
T1 sequence (P35557 1-466 isoform P35557-2): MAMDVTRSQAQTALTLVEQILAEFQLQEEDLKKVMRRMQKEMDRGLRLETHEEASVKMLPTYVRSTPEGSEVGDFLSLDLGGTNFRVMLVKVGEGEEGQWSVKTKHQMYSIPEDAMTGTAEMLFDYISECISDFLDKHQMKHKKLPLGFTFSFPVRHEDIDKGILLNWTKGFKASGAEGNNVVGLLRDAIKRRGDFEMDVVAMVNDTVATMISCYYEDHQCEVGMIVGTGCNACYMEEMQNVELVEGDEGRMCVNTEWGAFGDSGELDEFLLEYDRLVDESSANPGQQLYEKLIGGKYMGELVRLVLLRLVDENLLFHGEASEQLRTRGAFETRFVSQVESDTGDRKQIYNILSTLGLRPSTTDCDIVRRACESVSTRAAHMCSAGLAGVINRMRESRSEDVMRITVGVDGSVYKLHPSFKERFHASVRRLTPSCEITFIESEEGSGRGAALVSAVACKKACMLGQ
Experiment: Glucokinase activating action (G6PDH-coupled thio-NADH absorbance assay)
Assay type: biochemical
Settings: GK activating ability, final glucose concentration 2.5 mM, 30° C.; for Emax: OD of DMSO control defined as 100%
Procedure: Glucokinase activating ability was measured using the compound of the present invention.
Measurement of an excellent glucokinase activating action of the compounds represented by the aforementioned formula (I) is able to be carried out by a method mentioned in literatures such as Diabetes, vol. 45, pages 1671 to 1677 (1996) or a method similar thereto.
Recombinant human liver GK used in this assay was expressed in E. coli as FLAG fusion protein and purified by ANTIFLAG M2 AFFINITY GEL (Sigma).
The assay was conducted at 30° C. using a flat-bottom 96-well plate. An assay buffer (25 mM Hepes Buffer: pH=7.2; 2 mM MgCl2, 1 mM ATP, 0.5 mM TNAD and 1 mM dithiothreitol) (69 μl) was dispensed and 1 μl of a solution of a compound in DMSO or DMSO (as a control) was added. After that, 20 μl of an enzyme mixture (FLAG-GK, 20 U/ml G6PDH) cooled in ice was added, then 10 μl of 25 mM glucose which is a substrate was added and the reaction was started (final glucose concentration=2.5 mM).
After starting the reaction, an increase in absorbance at 405 nm was measured for 10 minutes every 30 seconds and the compound was evaluated using the increase during the first 5 minutes. FLAG-GK was added in such a manner that an increase in absorbance after 5 minutes in the presence of 1% of DMSO became between 0.05 and 0.1.
OD value in the case of DMSO control was defined as 100% and OD values in various concentrations of the compound to be evaluated were measured. From the OD values in various concentrations, Emax (%) and EC50 (μM) were calculated and used as indexes of GK activating ability of the compound.

Row | EC50 [nM] | Emax [%] | Structure (SMILES)
1 | 90 |  | c1cnc2sc(Nc3ncnc4ccc(Sc5nnc[nH]5)nc34)nc2c1 [Example 31]
2 | 80 | 860 | FCC(CF)Oc1ccc2ncnc(Nc3nc4cccnc4s3)c2c1 [Example 22, [6-(2-Fluoro-1-fluoromethyl-ethoxy)-quinazolin-4-yl]-thiazolo[5,4-b]pyridin-2-yl-amine]
3 | 180 | 1000 | c1cnc2sc(Nc3ncnc4ccc(Sc5nnc[nH]5)cc34)nc2c1 [Example 1, [6-(4H-[1,2,4]Triazol-3-ylsulfanyl)-quinazolin-4-yl]-thiazolo[5,4-b]pyridin-2-yl-amine]
